Patent US20260274922A1, “SYNTHETIC ESTROGEN RECEPTOR (ER)-DERIVED PEPTIDE” (THE TEXAS A&M UNIVERSITY SYSTEM, priority 2023, published 2026)
Where a SMILES comes first, the peptide text is derived from it. The star is where a group is joined. Cbz = O=C(OCc1ccccc1)*

T1: IRS1 (Homo sapiens, UniProt P35568)
T1 sequence (P35568 1-1242): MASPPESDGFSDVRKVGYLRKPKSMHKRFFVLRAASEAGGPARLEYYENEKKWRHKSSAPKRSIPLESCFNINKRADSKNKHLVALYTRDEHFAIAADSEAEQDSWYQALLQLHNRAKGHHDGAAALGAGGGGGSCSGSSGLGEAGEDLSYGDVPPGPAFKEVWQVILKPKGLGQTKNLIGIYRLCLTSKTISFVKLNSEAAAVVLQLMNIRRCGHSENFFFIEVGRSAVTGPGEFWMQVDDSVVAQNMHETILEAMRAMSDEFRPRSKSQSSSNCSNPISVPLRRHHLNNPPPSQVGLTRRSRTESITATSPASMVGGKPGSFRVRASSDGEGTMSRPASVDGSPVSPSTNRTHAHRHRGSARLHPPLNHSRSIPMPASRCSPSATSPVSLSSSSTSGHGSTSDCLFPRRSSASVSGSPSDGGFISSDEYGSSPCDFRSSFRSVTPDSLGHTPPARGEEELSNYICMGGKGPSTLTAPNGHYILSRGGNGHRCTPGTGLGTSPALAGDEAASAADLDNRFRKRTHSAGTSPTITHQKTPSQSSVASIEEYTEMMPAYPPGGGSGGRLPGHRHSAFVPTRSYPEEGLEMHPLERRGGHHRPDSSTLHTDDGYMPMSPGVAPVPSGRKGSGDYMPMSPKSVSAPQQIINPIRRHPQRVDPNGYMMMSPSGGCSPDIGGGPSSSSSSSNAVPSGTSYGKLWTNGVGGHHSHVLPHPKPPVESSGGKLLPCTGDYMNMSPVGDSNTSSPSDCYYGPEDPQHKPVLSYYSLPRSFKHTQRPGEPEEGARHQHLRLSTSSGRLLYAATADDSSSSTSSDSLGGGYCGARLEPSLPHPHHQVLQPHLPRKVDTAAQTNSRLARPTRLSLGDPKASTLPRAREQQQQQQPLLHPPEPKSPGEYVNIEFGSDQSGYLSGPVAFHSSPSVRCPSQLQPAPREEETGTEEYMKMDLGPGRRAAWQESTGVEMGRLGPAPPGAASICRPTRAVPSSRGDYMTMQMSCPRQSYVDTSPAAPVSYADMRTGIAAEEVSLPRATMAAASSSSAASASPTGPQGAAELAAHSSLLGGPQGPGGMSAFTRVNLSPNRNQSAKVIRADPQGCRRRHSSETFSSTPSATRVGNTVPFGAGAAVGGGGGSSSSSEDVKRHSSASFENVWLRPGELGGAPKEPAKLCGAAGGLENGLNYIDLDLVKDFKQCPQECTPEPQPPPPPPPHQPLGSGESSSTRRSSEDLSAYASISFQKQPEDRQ


Legend:
Format in all cases: cell-based
HepG2 cells (IRS1, pAKT) = test: Gain-of-function of ERα domains on insulin sensitivity in HepG2 cells; conditions: overexpression
Description: (§1) Primary hepatocytes isolation and cell culture. Primary hepatocytes were isolated. Male mice at age of 8-12 weeks were infused with a perfusion buffer A (calcium and magnesium-free HBSS supplemented with 10 mM HEPES, […], 1 mM glucose, and 1% penicillin-streptomycin, pH 7.4) through portal vein for 6-8 min. Then perfusion buffer A was changed to buffer B (calcium and magnesium-free HBSS supplemented with 10 mM HEPES, 1 mM CaCl2), 1 mM glucose, 1% penicillin-streptomycin, and 0.5 mg/mL collagenase II, pH 7.4). […] Liver cells were suspended and passed through a 70 μm cell strainer, followed by centrifuge at 1700 rpm for 2 min. Pellets were resuspended with Percoll at final concentration of 36% and centrifuged at 1800 rpm for 6 min. The hepatocyte pellet was washed and suspended with DMEM supplemented with 10% FBS and 1% penicillin-streptomycin in collagen-coated plates. The HepG2 cell line was purchased from Abcam and cultured with DMEM medium supplemented with 10% FBS and 1% penicillin-streptomycin in collagen-coated plates. The human embryo kidney (HEK) 293 cell line was purchased from Sigma and cultured with DMEM medium supplemented with 10% FBS and 1% penicillin-streptomycin. FBS-free DMEM medium was used to culture cells during the experiments.
(§2) Co-immunoprecipitation and Western blotting analysis. […] Protein bands were detected using a ChemiDoc image system.

IRS1 [1] = target: T1, IRS1; test: Immunofluorescence staining in HEK293T cells
Description: Immunofluorescence staining. Cells were fixed with 4% formaldehyde solution, followed by incubation with blocking buffer (1×PBS/5% normal serum/0.3% Triton X-100) for 1 h. After rinsing three times using PBS, cells were incubated with primary antibodies overnight at 4° C. Cells were washed with PBS and incubated with secondary antibodies (anti-mouse Alexa Flour 594 Conjugated) at room temperature 1-2 h. Cells were covered with DAPI-contained mounting medium. Fluorescent signal was observed using Confocal microscopy (Leica).

ERα mRNA = ERα mRNA expression in mouse primary hepatocytes treated with insulin; conditions: 200 nM insulin for 12 hours
Text: FIGS. 8A and 8B show the hyperinsulinemia decreases ERα mRNA expression in mouse primary hepatocytes. […] Data are presented as mean±SEM. * p<0.05, One-way ANOVA.
RNA extraction and quantitative real-time PCR. Total RNA was extracted from livers or primary hepatocytes using TRIzol (Invitrogen, Thermo Fisher Scientific), purified with chloroform, 80% ethanol, isopropanol, and RNA column, eluted with RNase free water, and reverse transcribed into cDNA using iScript Reverse Transcription Supermix (Bio-Rad, Hercules, CA). Quantitative real-time PCR (qPCR) was conducted using SsoAdvanced Universal SYBR Green Supermix (Bio-Rad, Hercules, CA) on CFX384 real-time PCR detection system (Bio-Rad, Hercules, CA). Q-PCR started with 95° C. incubation for 3 min, followed by 39 cycles of 95° C. for 5 s and 60° C. for 30 s. The threshold cycle (CT) values were obtained and used to calculate the relative transcriptional level of target genes by 2^−ΔΔCT method with Cyclophilin (Cyp) as an internal control. […].

IRS1 [2] = test: IRS1 protein levels in ERα deficient mouse primary hepatocytes treated with MG132; conditions: ERαLivKO hepatocytes, 10 μM MG132 for 3 hours
Description: Representative blots are shown. […] Co-immunoprecipitation was performed.
as §1, with “FBS-free DMEM medium was used to culture cells during the experiments.” left out
as §2

Molecule	enhancement of insulin-stimulated AKT phosphorylation (HepG2 cells (IRS1, pAKT))	increase in IRS1 (HepG2 cells (IRS1, pAKT))	colocalization with IRS1 (IRS1 [1])	also measured
MTMTLHTKASGMALLHQIQGNELEPLNRPQLKIPLERPLGEVYLDSSKPAVYNYPEGAAY (Description of sequence: ER-alpha amino acids 1-60) [ERα 1-60, ERα amino acids 1-60 domain]	~ 26%	~ 80%	colocalization with IRS1	–
insulin: insulin used to treat primary hepatocytes (200 nM)	–	–	–	mRNA expression levels of ERα (ERα mRNA): significantly decreased
TKASGMALLHEPLNRPQLKIPLERDSSKPAVYNY (Description of sequence: AF1 domain portion sequence) [34-amino acid-peptide, overexpressed in cells]	~ 26%	~ 80%	colocalization with IRS1	–
CC(C)C[C@@H](C=O)NC(=O)[C@H](CC(C)C)NC(=O)[C@H](CC(C)C)NC(=O)OCc1ccccc1 [MG132] (Cbz-Leu-Leu-Leu-aldehyde)	–	–	–	IRS1 protein levels (IRS1 [2]): significantly increased
ERα 60-280: ERα 60-280 domain, overexpressed in HepG2 cells (protein, UniProt P03372 60-280, looked up, fragment) YEFNAAAAANAQVYGQTGLPYGPGSEAAAFGSNGLGGFPPLNSVSPSPLMLLHPPPQLSPFLQPHGQQVPYYLENEPSGYTVREAGPPAFYRPNSDNRRQGGRERLASTNDKGSMAMESAKETRYCAVCNDYASGYHYGVWSCEGCKAFFKRSIQGHNDYMCPATNQCTIDKNRRKSCQACRLRKCYEVGMMKGGIRKDRRGGRMLKHKRQRDDGEGRGEV	–	–	–	IRS1 protein levels (HepG2 cells (IRS1, pAKT)): no significant effect; insulin-induced AKT phosphorylation (HepG2 cells (IRS1, pAKT)): no significant effect
